Experimental data taken from article PMC5642506 (Oncotarget, 2017).
Like-named read-outs stand apart in the source and are kept apart here.

What was measured:
[1] = tested on: pretreated nonsquamous lung cancer; design: method as in PMID 27697581; details: cited from earlier work
[2] = Treatment delivery, dose intensity, discontinuation; format: in vivo, human (patients)
Experimental: (§1) In this dose-finding phase I trial, escalating doses of foretinib were added to standard dose erlotinib as continuous daily dosing. Patients were permitted to remain on study treatment until the development of disease progression, unacceptable toxicity or withdrawal of consent. To facilitate pharmacokinetic studies and ensure tolerability of standard therapy, patients received erlotinib alone daily for 14 days during cycle 1, and foretinib was initiated on day 15, cycle 1 if erlotinib was well tolerated. Daily dosing for both agents thereafter was continuous.

[3] = Pharmacokinetic analyses (plasma, non-compartmental); format: in vivo, human (patients)
Experimental: Patients underwent history and physical examination, performance status, measurement of vital signs, routine hematology and biochemistry studies, thyroid studies and tumor imaging with computed tomography scans at baseline. Blood pressure monitoring and bloodwork was repeated weekly during cycle 1 and then on day 1 of each subsequent cycle. Patients were assessed on day 1 of each subsequent cycle and as needed for toxicity management. Tumor assessment with imaging was performed at every second cycle (8 weeks). Urinalysis was performed on day 1 of each cycle, ophthalmologic examination every 12 weeks, and pharmacokinetic sampling on day 14 and 28 of cycle 1.
Patients were required not to smoke or chew tobacco products for at least 14 days prior to study entry, and to abstain at least until the completion of pharmacokinetic sampling on day 28 of cycle 1.

[4] = Dose escalation: DLT and recommended phase II dose; design: species or system human (patients); details: human, in vivo
Experimental: as §1
Toxicity was evaluated continuously according to the Common Terminology Criteria for Adverse Events (CTCAE), Version 4.0. […] If 1/3 experienced DLT, at least 3 additional patients were treated for a total of 6 evaluable patients treated at that dose level. If 2/3 or 2/6 patients experienced DLT, dose escalation was to be stopped and that dose declared the maximum tolerated dose (MTD), with the next lower dose to be declared the recommended phase II dose for foretinib in combination with erlotinib. While designed as a 3+3 dose escalation study, 3+4 was allowed to ensure that there would be a minimum of 3 evaluable patients without having to reopen a cohort to replace a patient. Intra-patient dose escalation was not allowed. […]

[5] = tested on: pretreated EGFR wild type NSCLC; design: method as in PMID 27825638; details: cited from earlier work
[6] = tested on: EGFR mutant lung cancer cells with upregulated HGF and increased MET copy number; design: method as in earlier work; details: preclinical studies; cited from earlier work
[7] = Erlotinib D14, DL1 erlotinib 100 mg daily alone, N=6
[8] = Erlotinib D14, DL2 erlotinib 150 mg daily alone, N=9
[9] = Erlotinib D14, DL3 erlotinib 150 mg daily alone, N=7
[10] = Erlotinib D28, DL1 erlotinib 100 mg + foretinib 30 mg daily, N=7
[11] = Erlotinib D28, DL2 erlotinib 150 mg + foretinib 30 mg daily, N=11
[12] = Erlotinib D28, DL3 erlotinib 150 mg + foretinib 45 mg daily, N=6
[13] = human, plasma, oral, 100 mg, Erlotinib D14, DL1 erlotinib 100 mg daily alone, N=6
[14] = human, plasma, oral, 150 mg, Erlotinib D14, DL2 erlotinib 150 mg daily alone, N=9
[15] = human, plasma, oral, 150 mg, Erlotinib D14, DL3 erlotinib 150 mg daily alone, N=7
[16] = human, plasma, oral, Erlotinib D28, DL1 erlotinib 100 mg + foretinib 30 mg daily, N=7
[17] = human, plasma, oral, Erlotinib D28, DL2 erlotinib 150 mg + foretinib 30 mg daily, N=11
[18] = human, plasma, oral, Erlotinib D28, DL3 erlotinib 150 mg + foretinib 45 mg daily, N=6
[19] = Foretinib D28, DL1 foretinib 30 mg + erlotinib 100 mg daily, N=7
[20] = Foretinib D28, DL2 foretinib 30 mg + erlotinib 150 mg daily, N=11
[21] = Foretinib D28, DL3 foretinib 45 mg + erlotinib 150 mg daily, N=6
[22] = human, plasma, oral, Foretinib D28, DL1 foretinib 30 mg + erlotinib 100 mg daily, N=7
[23] = human, plasma, oral, Foretinib D28, DL2 foretinib 30 mg + erlotinib 150 mg daily, N=11
[24] = human, plasma, oral, Foretinib D28, DL3 foretinib 45 mg + erlotinib 150 mg daily, N=6

C[C@@H](Oc1cc(-c2cnn(C3CCNCC3)c2)cnc1N)c1c(Cl)ccc(F)c1Cl [crizotinib]
RP2D, crizotinib ([1]; BID, plus erlotinib 100 mg daily): 150 mg

C#Cc1cccc(Nc2ncnc3cc(OCCOC)c(OCCOC)cc23)c1 [erlotinib]
% receiving >=90% planned dose intensity, Erlotinib ([2]; DL1 (N=9), 30/100 mg): 78%
% receiving >=90% planned dose intensity, Erlotinib ([2]; DL2 (n=15), 30/150 mg): 40%
% receiving >=90% planned dose intensity, Erlotinib ([2]; DL3 (N=7), 45/150 mg): 43%
Cavg [3, 7]: 1254 (SD 622) ng/mL
Clast [3, 7]: 1106 (SD 710) ng/mL
Cmax [3, 7]: 1719 (SD 624) ng/mL
Cmax Dose Norm [3, 7]: 17.2 (SD 6.24) ng/mL/mg
Cmin [3, 7]: 815 (SD 641) ng/mL
Tmin [3, 7]: 4.17 (SD 9.71) hr
Cavg [3, 8]: 1466 (SD 507) ng/mL
Clast [3, 8]: 1137 (SD 419) ng/mL
Cmax [3, 8]: 2335 (SD 770) ng/mL
Cmax Dose Norm [3, 8]: 15.6 (SD 5.13) ng/mL/mg
Cmin [3, 8]: 1047 (SD 437) ng/mL
Tmin [3, 8]: 13.33 (SD 12.65) hr
Cavg [3, 9]: 1548 (SD 621) ng/mL
Clast [3, 9]: 1247 (SD 565) ng/mL
Cmax Dose Norm [3, 9]: 14.91 (SD 4.14) ng/mL/mg
Cmin [3, 9]: 1027 (SD 507) ng/mL
Tmin [3, 9]: 4.71 (SD 8.77) hr
Cavg [3, 10]: 1497 (SD 975) ng/mL
Clast [3, 10]: 1300 (SD 861.44) ng/mL
Cmax [3, 10]: 2387 (SD 1707) ng/mL
Cmax Dose Norm [3, 10]: 23.87 (SD 17.07) ng/mL/mg
Cmin [3, 10]: 1092 (SD 894) ng/mL
Tmin [3, 10]: 11.2 (SD 12.07) hr
Cavg [3, 11]: 1579 (SD 643) ng/mL
Clast [3, 11]: 1343 (SD 687) ng/mL
Cmax Dose Norm [3, 11]: 17.64 (SD 6.49) ng/mL/mg
Cmin [3, 11]: 1293 (SD 688) ng/mL
Tmin [3, 11]: 13.27 (SD 12.34) hr
AUCt [3, 12]: 40765 (SD 16673) ng*hr/mL
Cavg [3, 12]: 1699 (SD 695) ng/mL
Clast [3, 12]: 1283 (SD 697) ng/mL
Cmax Dose Norm [3, 12]: 16.48 (SD 4.78) ng/mL/mg
Cmin [3, 12]: 1244 (SD 725) ng/mL
Tmin [3, 12]: 16.17 (SD 12.14) hr
AUC(0-t) [3, 13]: 30100 ng·h/mL
Tmax [3, 13]: 7.67 h
clearance [3, 13]: 28.6 mL/min
AUC(0-t) [3, 14]: 35200 ng·h/mL
Tmax [3, 14]: 2.22 h
clearance [3, 14]: 85.4 mL/min
AUC(0-t) [3, 15]: 35500 ng·h/mL
Tmax [3, 15]: 3.86 h
clearance [3, 15]: 79.9 mL/min
Cmax ([3]; human, plasma, oral, 150 mg, Erlotinib D14, DL3 erlotinib 150 mg daily alone, N=7, read-out: Cmax): 2240 ng/mL
AUC(0-t) [3, 16]: 35900 ng·h/mL
Tmax [3, 16]: 2.29 h
clearance [3, 16]: 33.9 mL/min
AUC(0-t) [3, 17]: 36200 ng·h/mL
Tmax [3, 17]: 2.64 h
clearance [3, 17]: 76.1 mL/min
Tmax [3, 18]: 2.33 h
clearance [3, 18]: 76.2 mL/min
Cmax ([3]; human, plasma, oral, Erlotinib D28, DL3 erlotinib 150 mg + foretinib 45 mg daily, N=6, read-out: Cmax): 2470 ng/mL
RP2D, erlotinib ([1]; daily, plus crizotinib 150 mg BID): 100 mg
erlotinib exposure, pharmacokinetic interaction ([1]; with crizotinib): increased erlotinib exposure
recommended phase II dose, erlotinib [4]: 150 mg
PFS [5]: 1.8 months

COc1cc2c(Oc3ccc(NC(=O)C4(C(=O)Nc5ccc(F)cc5)CC4)cc3F)ccnc2cc1OCCCN1CCOCC1 [foretinib]
% receiving >=90% planned dose intensity, Foretinib Cycle 1 ([2]; DL1 (N=9), 30/100 mg): 100%
% receiving >=90% planned dose intensity, Foretinib Cycle >= 2 ([2]; DL1 (N=9), 30/100 mg): 50%
% receiving >=90% planned dose intensity, Foretinib Cycle 1 ([2]; DL2 (n=15), 30/150 mg): 67%
% receiving >=90% planned dose intensity, Foretinib Cycle >= 2 ([2]; DL2 (n=15), 30/150 mg): 31%
% receiving >=90% planned dose intensity, Foretinib Cycle 1 ([2]; DL3 (N=7), 45/150 mg): 86%
% receiving >=90% planned dose intensity, Foretinib Cycle >= 2 ([2]; DL3 (N=7), 45/150 mg): 0
sensitivity when added to erlotinib [6]: significantly increases sensitivity
Cavg [3, 19]: 30.35 (SD 9.23) ng/mL
Clast [3, 19]: 27.29 (SD 10.66) ng/mL
Cmax Dose Norm [3, 19]: 1.45 (SD 0.59) ng/mL/mg
Cmin [3, 19]: 22.79 (SD 7.74) ng/mL
Tmin [3, 19]: 12.29 (SD 11.34) hr
Cavg [3, 20]: 29.17 (SD 13.58) ng/mL
Clast [3, 20]: 24.12 (SD 9.34) ng/mL
Cmax Dose Norm [3, 20]: 1.49 (SD 0.74) ng/mL/mg
Cmin [3, 20]: 22.47 (SD 10.61) ng/mL
Tmin [3, 20]: 13.36 (SD 12.23) hr
Cavg [3, 21]: 42.07 (SD 17.31) ng/mL
Clast [3, 21]: 34.22 (SD 17.3) ng/mL
Cmax Dose Norm [3, 21]: 1.21 (SD 0.4) ng/mL/mg
Cmin [3, 21]: 31.96 (SD 18.16) ng/mL
Tmin [3, 21]: 12.0 (SD 13.15) hr
AUC(0-t) [3, 22]: 728 ng·h/mL
Tmax [3, 22]: 3.14 h
clearance [3, 22]: 419 mL/min
Cmax ([3]; human, plasma, oral, Foretinib D28, DL1 foretinib 30 mg + erlotinib 100 mg daily, N=7, read-out: Cmax): 43.4 ng/mL
AUC(0-t) [3, 23]: 681 ng·h/mL
Tmax [3, 23]: 3.55 h
clearance [3, 23]: 492 mL/min
Cmax ([3]; human, plasma, oral, Foretinib D28, DL2 foretinib 30 mg + erlotinib 150 mg daily, N=11, read-out: Cmax): 44.8 ng/mL
AUC(0-t) [3, 24]: 1010 ng·h/mL
Tmax [3, 24]: 3.5 h
clearance [3, 24]: 829 mL/min
Cmax ([3]; human, plasma, oral, Foretinib D28, DL3 foretinib 45 mg + erlotinib 150 mg daily, N=6, read-out: Cmax): 55.9 ng/mL
recommended phase II dose, foretinib [4]: 30 mg
